This is an account of results in US20250034200A1, “Prodrugs of Neurosteroid Analogs and Uses Thereof” (priority 2021, published 2025).

The term solubility denotes the dissolved amount per volume that the medium holds. Higher therefore signals a readily soluble substance.

Series [1] can be described thus: Aqueous stability assay (HPLC, pseudo first-order half-life). The series is classed as physicochemical. The settings on record: DPBS pH 7.0-7.3, 1 mg/mL, room temperature; for half-life at 1 mg/mL / half-life: buffer, read-out: PBS t1/2 (converted). As to the method:
Aqueous stability experiments were performed on an Agilent 1100 HPLC equipped with an Agilent 1200 autosampler. HPLC grade solvents were exclusively used during analysis, with acetonitrile being purchased from Sigma Aldrich, and water and formic acid provided by Fisher Scientific. […]
[…] All mixtures were then sonicated for 5 min or stirred until complete dissolution was achieved. Any precipitate observed in sample solutions was filtered with a PTFE syringe filter prior to analysis. Immediately after sample preparation, injection by the HPLC autosampler was performed, which was recorded as the initial time point (t=0 min). Samples were then kept in the autosampler at room temperature and injected at designated intervals without additional filtration or sample modification. Next, the area of the parent peak in each chromatogram was determined by automated integration in the Agilent ChemStation software. Pseudo first-order half-lives were then ascertained by calculating the percent of the parent compound remaining after each time point. Plots of time (x-axis) vs. the natural logarithm of percent parent remaining (y-axis) were subsequently constructed to determine the slope. Finally, the aqueous stability was evaluated using the following equation:
The HPLC conditions were as follows: injection volume, 1 μL; column temperature: 40° C.; detector: 254 nm; stationary phase: Zorbax Eclipse XDB-C18 (4.6×150 mm, 5 μm); flow rate: 1 mL/min; mobile phase: 80-95% acetonitrile in H2O (0.1% formic acid).

The nature of series [2]: Nephelometry (aqueous solubility). The series is classed as physicochemical. Conditions: DPBS with 1% DMSO, aqueous buffer, kinetic from dmso stock, DPBS pH 7.0-7.3, 1% DMSO, 25° C. The source says: Well A1 of the plate contained 100% DMSO.
The nature of series [3]: Plasma stability assay (LC-MS/MS). Type of series: in vitro ADME. Conditions: human plasma, 37° C., 3 μM; for half-life at 3 µM: read-out: Plasma t1/2 (converted). As to the method:
Procaine and procainamide were purchased from Sigma Aldrich. HPLC-grade acetonitrile, water, methanol, and formic acid were purchased from Fisher Scientific. Human plasma (Cat. No. […]2N) was obtained from BIOIVT, and PBS (1×Dulbecco's, pH 7.4) from Thermo Fisher Scientific.
Test compounds were dissolved in DMSO to make a stock solution of 10 mM and then diluted to 500 μM in buffer or 70% methanol. Human plasma was thawed at ambient temperature and aliquoted (994.0 μL) to a 1.5 mL Eppendorf tube in duplicates (vials A and B) for each compound. The plasma was incubated at 37° C. for 10 min in an incubator shaker at 150 RPM; the reaction was initiated by addition of the test compound (6.0 μL), followed by vortex mixing. The total reaction volume was 1000 μL, the final organic solvent concentrations were […] (when 70% methanol was used for dilution) and 0.03% DMSO, and the final concentration of the test compound was 3 μM. The spiked plasma samples were incubated at 37° C. for 4 h. The reactions were terminated at time point 0, 15, 30, 60, 120, 180, and 240 min by taking a 100 μL aliquot from the test incubation mixture and immediately quenching it by adding it into ice-cold acetonitrile or methanol (150 μL) containing 2 μM internal standard (ISTD), followed by vortex mixing. The ISTD was d5-7-ethoxy coumarin. The samples were then centrifuged at 15000 RPM for 25 min at 4° C., and the supernatant was transferred to an LC-MS vial for analysis by LC-MS/MS. Each time point was tested in duplicates followed by in-between blank washes to avoid carryover and to equilibrate the column.
Procaine (poor plasma stability) and procainamide (good plasma stability) were used as controls at the same concentration as that of the test compound. These controls were run in parallel to test the assay's competency. Matrix blank was prepared by adding acetonitrile or methanol containing ISTD to plasma samples without any of the test or control compounds. Also, an additional control sample was made to simply monitor compound degradation in PBS buffer.
Below is a summary of samples prepared for a given test compound in a typical plasma stability assay: • Test compound (TC): 994 μL human plasma+6.0 μL TC (Vial A) 994 μL human plasma+6.0 μL TC (Vial B) • Control: 596 μL human plasma+3.6 μL (procaine+procainamide) • Blank matrix: 500 μL PBS buffer+100 μL human plasma • Additional control: 142 μL PBS buffer+0.9 μL TC • Quenching mixture: 150 μL acetonitrile or methanol with ISTD (2 μM) • Final volume: 250 μL (100 μL from the incubation mixture+150 μL quenching mixture; final ISTD conc.: 1.2 μM)
LC-MS/MS analysis was performed using Agilent 1260 Infinity II HPLC, coupled with an Agilent G6460 triple quadrupole mass spectrometer (Agilent Technologies, USA). The data were acquired and processed using the Agilent 6460 Quantitative Analysis data processing software.
Reverse-phase HPLC separation for each compound was achieved on an Agilent InfinityLab Poroshell 120 C18 column (2.1×50 mm, 2.7 μm) with a mobile phase composed of methanol/water with 0.1% formic acid or acetonitrile/water with 0.1% formic acid at a flow rate of 0.5 mL/min. Each method was developed in the presence of the ISTD. The column temperature was maintained at 40° C. The detection was operated using the Agilent Jet-Stream electrospray positive ionization under the multiple reaction monitoring mode. The mass spec conditions were as follows: dwell time 100 ms; gas flow 10 L/min; nebulizer pressure 45 psi; delta EMV 200 V.
Plots of time (x-axis) vs. the natural logarithm of percent parent remaining (y-axis) were subsequently constructed to determine the slope. Finally, the plasma stability was evaluated using the following equation: […]

SMILES strings stand for the structures. Where a name gives a salt, the structure may show the parent alone. Read-outs that look alike come from different tables or passages of the source. Some results are limits rather than exact numbers.

As to `CNCCN(CCO)C(=O)O/N=C(\C)[C@H]1CC[C@H]2[C@@H]3CCC4=CC(=O)CC[C@]4(C)[C@H]3CC[C@]12C` [32c, 2-((((((E)-1-((8S,9S,10R,13S,14S,17S)-10,13-dimethyl-3-oxo-2,3,6,7,8,9,10,11,12,13,14,15,16,17-tetradecahydro-1H-cyclopenta[a]phenanthren-17-yl)ethylidene)amino)oxy)carbonyl)(2-hydroxyethyl)amino)-N-methylethan-1-aminium chloride], in series [1], the half-life at 1 mg/mL was 24.8 ± 1.1 h. In addition, in series [2], the solubility at 90 min was more than 500 µM. Further, the half-life at 3 µM in series [3] is 1.7 h.

Take `C/C(=N\OC(=O)N(C)CCNCCO)[C@H]1CC[C@H]2[C@@H]3CCC4=CC(=O)CC[C@]4(C)[C@H]3CC[C@]12C` [32d, 2-((((((E)-1-((8S,9S,10R,13S,14S,17S)-10,13-dimethyl-3-oxo-2,3,6,7,8,9,10,11,12,13,14,15,16,17-tetradecahydro-1H-cyclopenta[a]phenanthren-17-yl)ethylidene)amino)oxy)carbonyl)(methyl)amino)-N-(2-hydroxyethyl)ethan-1-aminium chloride]: the half-life in series [1] was 30.4 ± 5 h. This compound returned a solubility at 90 min in series [2] of more than 500 µM. The “Plasma t1/2” value in series [3] is given as 2.8 h.

On to `C/C(=N\OC(=O)NC[C@@H]1CCCN1)[C@H]1CCC2[C@@H]3CCC4=CC(=O)CC[C@]4(C)[C@H]3CC[C@@]21C` (stereo partly drawn) [32g, (8S,9S,10R,13S,17S)-10,13-dimethyl-17-((E)-1-((((((S)-pyrrolidin-2-yl)methyl)carbamoyl)oxy)imino)ethyl)-1,2,6,7,8,9,10,11,12,13,14,15,16,17-tetradecahydro-3H-cyclopenta[a]phenanthren-3-one hydrochloride], for which the half-life at 1 mg/mL in series [1] (d (days)) was 396 h. Besides, the solubility at 90 min in series [2] was more than 750 µM. The half-life at 3 µM in series [3] was 9.6 h.

As for `CNCCN(C(=O)O/N=C(\C)[C@H]1CC[C@H]2[C@@H]3CCC4=CC(=O)CC[C@]4(C)[C@H]3CC[C@]12C)C(C)C.O=C(O)C(F)(F)F` [53a, (E)-9-((8S,9S,10R,13S,14S,17S)-10,13-dimethyl-3-oxo-2,3,6,7,8,9,10,11,12,13,14,15,16,17-tetradecahydro-1H-cyclopenta[a]phenanthren-17-yl)-5-isopropyl-7-oxa-2,5,8-triazadec-8-en-6-one 2,2,2-trifluoroacetate], the “PBS t1/2” value in series [1] was 19.72 ± 0.38 h. The solubility at 90 min in series [2] was more than 750 µM. In addition, the “Plasma % rmn at 2 h” value in series [3] is given as 41%.

Regarding `CNCCN(C(=O)O/N=C(\C)[C@H]1CC[C@H]2[C@@H]3CCC4=CC(=O)CC[C@]4(C)[C@H]3CC[C@]12C)C1CC1.O=C(O)C(F)(F)F` [53b, (E)-5-cyclopropyl-9-((8S,9S,10R,13S,14S,17S)-10,13-dimethyl-3-oxo-2,3,6,7,8,9,10,11,12,13,14,15,16,17-tetradecahydro-1H-cyclopenta[a]phenanthren-17-yl)-7-oxa-2,5,8-triazadec-8-en-6-one 2,2,2-trifluoroacetate], the “PBS t1/2” value in series [1] was determined as 28.16 ± 0.04 h. In series [2], this compound came in with a solubility at 90 min of more than 750 µM. Besides, in series [3], the “Plasma % rmn at 2 h” value worked out at 45%.

Consider `CNCCN(C(=O)O/N=C(\C)[C@H]1CC[C@H]2[C@@H]3CCC4=CC(=O)CC[C@]4(C)[C@H]3CC[C@]12C)C1CCCC1.O=C(O)C(F)(F)F` [53d, (E)-5-cyclopentyl-9-((8S,9S,10R,13S,14S,17S)-10,13-dimethyl-3-oxo-2,3,6,7,8,9,10,11,12,13,14,15,16,17-tetradecahydro-1H-cyclopenta[a]phenanthren-17-yl)-7-oxa-2,5,8-triazadec-8-en-6-one 2,2,2-trifluoroacetate], for which the “PBS t1/2” value in series [1] was 10.70 ± 0.15 h. In addition, in series [2], the solubility at 90 min was more than 750 µM. In series [3], the “Plasma % rmn at 2 h” value worked out at 65%.

In the case of `CNCCN(CC(C)C)C(=O)O/N=C(\C)[C@H]1CC[C@H]2[C@@H]3CCC4=CC(=O)CC[C@]4(C)[C@H]3CC[C@]12C.O=C(O)C(F)(F)F` [53e, (E)-9-((8S,9S,10R,13S,14S,17S)-10,13-dimethyl-3-oxo-2,3,6,7,8,9,10,11,12,13,14,15,16,17-tetradecahydro-1H-cyclopenta[a]phenanthren-17-yl)-5-isobutyl-7-oxa-2,5,8-triazadec-8-en-6-one 2,2,2-trifluoroacetate], in series [1], the half-life was more than 24 h. Also, the solubility at 90 min in series [2] is more than 750 µM. Moreover, the “Plasma % rmn at 2 h” value in series [3] is reported as 83%.

As to `CCNCCN(CC)C(=O)O/N=C(\C)[C@H]1CC[C@H]2[C@@H]3CCC4=CC(=O)CC[C@]4(C)[C@H]3CC[C@]12C.Cl` [54a, (E)-2-((8S,9S,10R,13S,14S,17S)-10,13-dimethyl-3-oxo-2,3,6,7,8,9,10,11,12,13,14,15,16,17-tetradecahydro-1H-cyclopenta[a]phenanthren-17-yl)-6-ethyl-4-oxa-3,6,9-triazaundec-2-en-5-one hydrochloride], the half-life in series [1] is more than 24 h. Besides, the solubility at 90 min in series [2] is more than 750 µM. Moreover, the “Plasma % rmn at 2 h” value in series [3] is given as 71%.

Turning to `C/C(=N\OC(=O)N(CCNC(C)C)C(C)C)[C@H]1CC[C@H]2[C@@H]3CCC4=CC(=O)CC[C@]4(C)[C@H]3CC[C@]12C.Cl` [54b, (E)-2-((8S,9S,10R,13S,14S,17S)-10,13-dimethyl-3-oxo-2,3,6,7,8,9,10,11,12,13,14,15,16,17-tetradecahydro-1H-cyclopenta[a]phenanthren-17-yl)-6-isopropyl-10-methyl-4-oxa-3,6,9-triazaundec-2-en-5-one hydrochloride], in series [1], the half-life is more than 24 h. For the same compound, the solubility at 90 min in series [2] was more than 500 µM. Also, the “Plasma % rmn at 2 h” value in series [3] worked out at 84%.

For the compound `C/C(=N\OC(=O)N(CCO)CCNCCO)[C@H]1CC[C@H]2[C@@H]3CCC4=CC(=O)CC[C@]4(C)[C@H]3CC[C@]12C.Cl` [54d, (E)-2-((8S,9S,10R,13S,14S,17S)-10,13-dimethyl-3-oxo-2,3,6,7,8,9,10,11,12,13,14,15,16,17-tetradecahydro-1H-cyclopenta[a]phenanthren-17-yl)-11-hydroxy-6-(2-hydroxyethyl)-4-oxa-3,6,9-triazaundec-2-en-5-one hydrochloride], the “PBS t1/2” value in series [1] came to 28.79 ± 3.16 h. In series [2], this compound had a solubility at 90 min of more than 750 µM. The “Plasma % rmn at 2 h” value in series [3] came out at 32%.
